Measured values taken from patent publication US4568666A, “Carboxylalkyl peptide derivatives” (G. D. Searle & Co., priority 1984, dated 1986).

Biological target: T1, Human Rheumatoid Synovial Collagenase (Homo sapiens, UniProt P03956)
T1 construct: from tissue
T1 sequence (P03956 100-469): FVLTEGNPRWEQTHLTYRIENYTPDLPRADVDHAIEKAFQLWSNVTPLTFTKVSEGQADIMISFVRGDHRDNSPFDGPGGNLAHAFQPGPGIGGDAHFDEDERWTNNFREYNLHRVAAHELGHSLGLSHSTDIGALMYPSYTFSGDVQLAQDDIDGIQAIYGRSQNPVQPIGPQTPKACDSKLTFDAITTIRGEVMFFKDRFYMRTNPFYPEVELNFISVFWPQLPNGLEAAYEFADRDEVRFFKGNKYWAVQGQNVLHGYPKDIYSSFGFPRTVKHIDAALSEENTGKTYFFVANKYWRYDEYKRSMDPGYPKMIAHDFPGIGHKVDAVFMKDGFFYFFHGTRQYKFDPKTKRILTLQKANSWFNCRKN
Assay: Collagenase inhibition (procedure of Cawston and Barrett, acetyl 14C collagen)
Assay type: biochemical
Details: 37° C., 16 hours, native acetyl 14C collagen, Tris HCl-CaCl2 pH 7.6
Experimental: This was determined following the procedure of Cawston and Barrett, Anal. Biochem., 99, 340-345 (1979) whereby the 1 mM of the inhibitor being tested or dilutions thereof are incubated at 37° C. for 16 hours with native collagen and collagenase (buffered with Tris HCl--CaCl2; pH 7.6). The collagen is acetyl ^14 C collagen. The samples are centrifuged to sediment undigested collagen and an aliquot of the radiactive supernatant removed for assay on a scintillation counter as a measure of hydrolysis. The collagenase activity in the presence of 1 mM inhibitor, or a dilution thereof, is compared to activity in a control devoid of inhibitor and the results reported as that inhibitor concentration effecting 50% inhibition of the collagenase.

Molecule | IC50 [µM]
CNC(=O)[C@H](Cc1ccc(OC2CCCC2)cc1)NC(=O)[C@H](CC(C)C)N[C@H](CCNC(=O)OCc1ccccc1)C(=O)O [Example 33, N-[3-N-(Benzyloxycarbonyl)amino-1-(R)-carboxypropyl]-L-leucyl-O-cyclopentyl-L-tyrosine N-Methylamide] | 0.74
CNC(=O)[C@H](Cc1ccc(OC(C)C)cc1)NC(=O)[C@H](CC(C)C)N[C@H](CCNC(=O)OCc1ccccc1)C(=O)O [Example 27, N-[3-N-(Benzyloxycarboxyl)amino-1-(R)-carbonypropyl]-L-leucyl-O-isopropyl-L-tyrosine N-methylamide] | 2.1
CC(C)C[C@H](N[C@H](C)C(=O)O)C(=O)NCCc1ccccc1 [Example 6, N[1-(R)-Carboxyethyl]-L-Leucine N-Phenethylamide] | 42
CNC(=O)[C@H](Cc1ccc(OC)cc1)NC(=O)[C@H](CC(C)C)N[C@H](CCSC)C(=O)O [Example 7, N[1-(R)-Carboxy-3-methylthiopropyl]-L-leucyl-O-methyl-L-tyrosine N-methylamide] | 5.5
CC(C)C[C@H](N[C@H](CCNC(=O)OCc1ccccc1)C(=O)O)C(=O)NCCc1ccccc1 [Example 19, N-[3-N-(Benzyloxycarbonyl)amino-1-(R)-carboxypropyl]-L-leucine N-Phenethylamide] | 51
CCCOc1ccc(C[C@H](NC(=O)[C@H](CC(C)C)N[C@H](CCNC(=O)OCc2ccccc2)C(=O)O)C(=O)NC)cc1 [Example 26, N-(3-N-(Benzyloxycarbonyl)amino-1-(R)-carboxypropyl)-L-leucyl-O-propyl-L-tyrosine N-methyl amide] | 0.74
CNC(=O)[C@H](Cc1ccc(OC)cc1)NC(=O)[C@H](CC(C)C)N[C@H](CCCNC(=O)OCc1ccccc1)C(=O)O [Example 9, N-[4-N-(Benzyloxycarbonyl)amino-1-(R)-carboxybutyl]-L-leucyl-O-methyl-L-tyrosine N-Methylamide] | 9.5
CNC(=O)[C@H](Cc1ccc(OC)cc1)NC(=O)[C@H](CC(C)C)N[C@H](CCNC(=O)OCc1ccc([N+](=O)[O-])cc1)C(=O)O [Example 14, N-[3-N-(p-Nitrobenzyloxycarbonyl)amino-1-(R)-carboxypropyl]-L-leucyl-O-methyl-L-tyrosine N-Methylamide] | 1.2
CCCCNC(=O)[C@H](C)NC(=O)[C@H](CCCC)N[C@H](C)C(=O)O [Example 24, N-(1-(R)-Carboxyethyl)-S-norleucyl-S-alanine. N-Butylamide] | 19
CNC(=O)[C@H](Cc1ccc(OCCCCCC(C)C)cc1)NC(=O)[C@H](CC(C)C)N[C@H](CCNC(=O)OCc1ccccc1)C(=O)O [Example 31, N-[3-N-(Benzyloxycarbonyl)amino-1-(R)-carboxypropyl]-L-leucyl-O-6(methyl)heptyl-L-tyrosine N-methyl amide] | 2.5
N-[3-(N'-Benzyl)carbamoyl-1-(R)-carboxypropyl]-L-leucyl-O-methyl-L-tyrosineN-Methylamide [Example 18] | 1.3
CNC(=O)[C@H](Cc1ccc(OC)cc1)NC(=O)[C@H](CC(C)C)N[C@H](CCCCNC(=O)OCc1ccccc1)C(=O)O [Example 21, N-[5-N-(Benzyloxycarbonyl)amino-1-(R)-carboxypentyl]-L-leucyl-O-methyl-L-tyrosine N-Methylamide] | 11
CNC(=O)[C@H](Cc1ccc(OCc2ccccc2)cc1)NC(=O)[C@H](CC(C)C)N[C@H](C)C(=O)O [Example 5, N[1-(R)-Carboxyethyl]-L-leucyl-O-benzyl-L-tyrosine N-Methylamide] | 1.7
CNC(=O)[C@H](Cc1ccc(OC)cc1)NC(=O)[C@H](CC(C)C)N[C@H](CCNC(=O)c1ccc([N+](=O)[O-])cc1)C(=O)O [Example 16, N-[3-N-(P-Nitrobenzoyl)amino-1-(R)-carboxypropyl]-L-leucyl-O-methyl-L-tyrosine. N-Methylamide] | 4.9
CNC(=O)[C@H](Cc1ccc(O)cc1)NC(=O)[C@H](CC(C)C)N[C@H](CCNC(=O)c1ccccc1)C(=O)O [Example 15, N-[3-N-(Benzoyl)amino-1-(R)-carboxy-propyl]-L-leucyl-L-tyrosine N-Methylamide] | 3.1
CNC(=O)[C@H](Cc1ccc(O)cc1)NC(=O)[C@H](CC(C)C)N[C@H](CCNC(=O)OCc1ccccc1)C(=O)O [Example 25, N-[3-N-(Benzyloxycarbonyl)amino-1-(R)-carboxypropyl]-L-leucyl-L-tyrosine N -Methylamide] | 1.2
CNC(=O)[C@H](Cc1ccc(OC)cc1)NC(=O)[C@H](CC(C)C)N[C@H](CCCCNC(=O)[C@@H]1CCCN1C(C)=O)C(=O)O [Example 22, N-[5-N-[N-Acetyl-L-prolyl]amino-1-(R)-carboxypentyl]-L-leucyl-O-methyl-L-tyrosine N-Methylamide] | 42
CCCCNC(=O)COc1ccc(C[C@H](NC(=O)[C@H](CC(C)C)N[C@H](CCNC(=O)OCc2ccccc2)C(=O)O)C(=O)NC)cc1 [Example 34, N-[3-N-(Benzyloxycarbonyl)amino-1-(R)-carboxypropyl]-L-leucyl-O-(2-aminobutyl-2-oxo)ethyl-L-tyrosine N-Methylamide] | 2.6
CNC(=O)[C@H](Cc1ccc(OCCC(C)C)cc1)NC(=O)[C@H](CC(C)C)N[C@H](CCNC(=O)OCc1ccccc1)C(=O)O [Example 30, N[3-N-(Benzyloxycarbonyl)amino-1-(R)-carboxypropyl]-L-leucyl-O-3(methyl)butyl-L-tyrosine N-methyl amide] | 1.1
N-[3-N-(Benzyloxycarbonyl)amino-1-(R)-carboxypropyl]-L-leucyl-O-(2'-carboxyethyl-L-leucyl N-Methylamide)-L-tyrosine N-Methylamide [Example 35] | 2.4
CCCCCOc1ccc(C[C@H](NC(=O)[C@H](CC(C)C)N[C@H](CCNC(=O)OCc2ccccc2)C(=O)O)C(=O)NC)cc1 [Example 29, N-[3-N-(Benzyloxycarbonyl)amino-1-(R)-carboxypropyl]-L-leucyl-O-pentyl-L-tyrosine N-Methylamide] | 0.54
COc1ccc(C[C@H](NC(=O)[C@H](CC(C)C)N[C@H](CCNC(=O)OCc2ccccc2)C(=O)O)C(=O)NCCc2ccccc2)cc1 [Example 36, N-[3-N-(Benzyloxycarbonyl)amino-1-(R)-carboxypropyl]-L-leucyl-O-methyl-L-tyrosine N-Phenethylamide] | 1
CNC(=O)[C@H](Cc1ccc(OCc2ccccc2)cc1)NC(=O)[C@H](CC(C)C)N[C@H](CCNC(=O)OCc1ccccc1)C(=O)O [Example 32, N-[3-N-(Benzyloxycarbonyl)amino-1-(R)-carboxypropyl]-L-leucyl-O-benzyl-L-tyrosine N-Methylamide] | 0.91
CNC(=O)[C@H](Cc1ccc(OC(C)(C)C)cc1)NC(=O)[C@H](CC(C)C)N[C@H](CCNC(=O)OCc1ccccc1)C(=O)O [Example 28] | 3.6
CNC(=O)[C@H](Cc1ccc(OC)cc1)NC(=O)[C@H](CC(C)C)N[C@H](CCN)C(=O)O [Example 13, N-[3-Amino-1-(R)-carboxypropyl]-L-leucyl-O-methyl-L-tryosine N-Methylamide] | 91
